“Also recorded” adds a separate entry of the source. Where two headings read alike, the source gives them in different places.
What was measured:
[1] = system: XylS/Pm; assay type: cell-based, P. putida KT2440
[2] = system: CatR/Pcat; assay type: cell-based, P. putida KT2440
[3] = system: BenR/Pben; assay type: cell-based, P. putida KT2440
[4] = system: msfGFP reporter gene under control of BCD10; assay type: cell-based, P. putida KT2440; settings: 5 mM 3-FBz (inducible systems), 30 mM glucose, FIG. 6
[5] = system: Pmuc3 pSEVA228; assay type: cell-based, Pseudomonas putida
[6] = system: P. putida KT2440; settings: for growth rate as share of the maximum rate on glucose: 20 mM
[7] = system: P. knackmussii; test: Microtiter plate cultivation: growth with metabolites of the bioconversion; settings: for growth rate as share of the μmax observed on only glucose: 15 mM
[8] = system: Pmuc10; test: as above; settings: Example 6 (improved method); 30 mM as sole carbon source
[9] = system: P. knackmussii; test: Shaken flask fermentation with 10 mM 2-FBz or 3-FBz; assay type: cell-based, Pseudomonas knackmussii; settings: 10 mM 2-FBz, initial about 20 h
[10] = Example 1, 30 mM glucose, 2.0 mM additive
[11] = Example 6 (improved method), 30 mM glucose, 0.5 mM additive
[12] = Example 6 (improved method), 30 mM glucose, 1.0 mM additive
[13] = Example 6 (improved method), 30 mM glucose, 2.0 mM additive
[14] = Example 1, 30 mM glucose, 0.5 mM additive
[15] = Example 1, 30 mM glucose, 1.0 mM additive
[16] = Example 1, 30 mM as sole carbon source
[17] = Example 6 (improved method), 30 mM as sole carbon source
[18] = Example 1, 30 mM glucose, 10 mM additive
[19] = Example 1, 30 mM glucose, 15 mM additive
[20] = Example 1, 30 mM glucose, 20 mM additive
[21] = Example 6 (improved method), 30 mM glucose, 10 mM additive
[22] = Example 6 (improved method), 30 mM glucose, 15 mM additive
[23] = Example 6 (improved method), 30 mM glucose, 20 mM additive

Compound: Cc1cccc(C(=O)O)c1 [Strain 3-mBz, 3-methyl benzoate, reference compound]
- GFP expression under Pm(ML1-17) control relative to the expression provided by Pm ([1]; compound as inducer): 70%
- induction by 1 mM as compared to 5 mM of the inducer ([1]; data not shown): 94%
- response ([2]; 1.0 mM): no response at all
- increase in GFP expression over basal expression ([3]; 1.0 mM): No further increase

Compound: P14g: constitutive promoter, SEQ ID NO: 50 (DNA GCCCATTGACAAGGCTCTCGCGGCCAGGTATAATTGCACGA; expressed or natural sequence) [Strain P14g, reference compound]
- transcription initiation rate: quotient of OD630 nm-normalized fluorescence with the one of Ptac [4]: 2.51

Compound: Oc1ccccc1O [catechol, pyrocatechol]
- Maximum growth rate μmax [5, 10]: 0.86 h⁻¹
- Maximum growth rate μmax [5, 11]: 0.62 h⁻¹
- Maximum growth rate μmax [5, 12]: 0.74 h⁻¹
- Maximum growth rate μmax [5, 13]: 0.81 h⁻¹
- Maximum growth rate μmax [6, 14]: 0.72 h⁻¹
- Maximum growth rate μmax [6, 15]: 0.77 h⁻¹
- Maximum growth rate μmax [6, 10]: 0.78 h⁻¹
- increase of μmax with increasing concentration ([6]; Example 1, up to 2 mM): up to 30%
- Maximum growth rate μmax [6, 11]: 0.69 h⁻¹
- Maximum growth rate μmax [6, 12]: 0.71 h⁻¹
- Maximum growth rate μmax [6, 13]: 0.68 h⁻¹
- Maximum growth rate μmax [7, 14]: 0.36 h⁻¹
- Maximum growth rate μmax [7, 15]: 0.33 h⁻¹
- Maximum growth rate μmax [7, 10]: 0.31 h⁻¹
- Maximum growth rate μmax [7, 11]: 0.36 h⁻¹
- Maximum growth rate μmax [7, 12]: 0.33 h⁻¹
- Maximum growth rate μmax [7, 13]: 0.29 h⁻¹
- toxic effect ([7]; up to 2 mM): slightly toxic effect; also recorded: Only a little toxic effect

Compound: O=C([O-])c1ccccc1.[K+] [K-benzoate, potassium benzoate]
- Maximum growth rate μmax ([5]; Example 1, 30 mM K-benzoate as carbon source, 0.5 mM 3-mBz): 0.16 h⁻¹
- Maximum growth rate μmax ([5]; Example 6 (improved method), 30 mM K-benzoate as carbon source, 0.5 mM 3-mBz): 0.16 h⁻¹
- GFP expression from Pm relative to the one brought about by 1.0 mM 3-mBz ([1]; 5.0 mM inducer): 20%
- GFP fluorescence as compared to the induction by 3-FBz ([2]; 5 mM): 35%
- increase in GFP expression over basal expression ([3]; 2.0 mM): No further increase
- increase of induction compared to the uninduced system ([3]; 5 mM): 70%
- Maximum growth rate μmax [6, 16]: 0.37 h⁻¹
- Maximum growth rate μmax [6, 17]: 0.62 h⁻¹
- Maximum growth rate μmax [7, 16]: no growth
- Maximum growth rate μmax [7, 17]: no growth
- Maximum growth rate μmax [8]: 0.53 h⁻¹

Compound: O=C(O)c1ccccc1F [Strain 2-FBz, 2-fluorobenzoic acid]
- qs ([9]; Example 1): 0.26 mmol gCDW^−1 h^−1
- qs ([9]; Example 6): 0.81 mmol gCDW^−1 h^−1
- growth rate as share of the maximum rate on glucose ([6]; Example 1): 80%
- Maximum growth rate μmax [6, 18]: 0.57 h⁻¹
- Maximum growth rate μmax [6, 19]: 0.53 h⁻¹
- Maximum growth rate μmax [6, 20]: 0.48 h⁻¹
- Maximum growth rate μmax [6, 21]: 0.56 h⁻¹
- Maximum growth rate μmax [6, 22]: 0.52 h⁻¹
- Maximum growth rate μmax [6, 23]: 0.46 h⁻¹
- growth rate as share of the maximum rate on glucose ([6]; Example 6): 53%
- growth rate as share of the μmax observed on only glucose ([7]; Example 1): 58%
- Maximum growth rate μmax [7, 18]: 0.25 h⁻¹
- Maximum growth rate μmax [7, 19]: 0.22 h⁻¹
- Maximum growth rate μmax [7, 20]: unable to grow at all
- Maximum growth rate μmax ([7]; Example 1, 30 mM glucose, 20 mM additive, listed as K-2-F-benzoate): no growth
- Maximum growth rate μmax [7, 21]: 0.25 h⁻¹
- Maximum growth rate μmax [7, 22]: 0.19 h⁻¹
- Maximum growth rate μmax [7, 23]: unable to grow at all
- Maximum growth rate μmax ([7]; Example 6 (improved method), 30 mM glucose, 20 mM additive, listed as K-2-F-benzoate): no growth
- growth rate as share of the μmax observed on only glucose ([7]; Example 6): 54%

Source: US20230323410A1, “BACTERIAL CELLS AND METHODS FOR PRODUCTION OF 2-FLUORO-CIS,CIS-MUCONATE” (priority 2020, published 2023)
